# Measured values taken from paper PMC11931565, “Exploring medium and long arm extensions of 1,2,4-triazole derivatives as Candida albicans 14α-demethylase (CYP51) inhibitors” (RSC Medicinal Chemistry, 2025).
# Numbered stars: 1 amine (or outer) side, 2 acyl side, 3 side chain; on linkers, the order of the positions; unused ones are H or OH. Bridge positions count the residues as written; N and C are the ends. Square brackets hold non-standard residues; d marks the D form. Peptide text beside a SMILES is read from it. * marks the point of attachment. hTyr(3S-OH,4S-OH,3'-OSO3H) = N[C@H](C(=O)O)[C@H](O)[C@@H](O)c1ccc(O)c(OS(=O)(=O)O)c1; Orn(4R-OH,5R-OH) = O=C([C@H](C[C@@H](O)[C@@H](O)N[*:3])N[*:1])[*:2]; Pro(3S-OH,4S-Me) = C[C@H]1CN[C@H](C(=O)O)[C@H]1O; X1 = CCCCCOc1ccc(-c2cc(-c3ccc(C(=O)*)cc3)no2)cc1; Gln(3R-OH) = NC(=O)C[C@@H](O)[C@H](N)C(=O)O; Hyp = O=C(O)[C@@H]1C[C@@H](O)CN1
# What was measured:
# [1] = system: S. cerevisiae Y2411 parent (control levels of wild-type ScCYP51); experiment: MIC, recombinant S. cerevisiae strain Y2411 parent; assay type: cell-based; conditions: Saccharomyces cerevisiae, pH 6.8, read-out: MIC Y2411 parent
# Procedure: (§1) The most promising thiazole derivative 7b, and the extended amide derivatives 13a and 13b were evaluated against a panel of recombinant S. cerevisiae strains[24,31,32] expressing control levels of wild-type CYP51 (ScCYP51), overexpressed wild-type ScCYP51, overexpressed azole-resistant ScCYP51 Y140F/H mutations (S. cerevisiae Y140 equivalent to C. albicans Y132), overexpressed C. albicans efflux pumps MDR1a or CDR1B and overexpressed H. sapiens wild-type CYP51 (HsCYP51) (Table 3) at 24 and 48 h with each assay performed in triplicate.
# (§2) Minimum inhibitory concentration (MIC) were determined according to recommendations outlined in the Clinical and Laboratory Standards Institute (CLSI) document M27-Ed4E[39] with modifications. Sabouraud dextrose (SD) medium (pH 6.8) was used instead of RPMI-1640 for inoculum and growth of the S. cerevisiae strains and cultures were incubated at 30 °C. […] Stock solutions of each agent were prepared in DMSO and the final concentration of DMSO was 1% (v/v) in SD. […] The final concentration of all other compounds ranged from 0.03–16 μg mL^−1. Three biological repeats were performed.
# [2] = system: S. cerevisiae Y525 overexpressing C. albicans MFS transporter MDR1a; experiment: MIC, recombinant S. cerevisiae strain Y525 CaMDR1a; assay type: cell-based; conditions: SD medium pH 6.8, 30 °C; 80% inhibition of growth
# Procedure: as §2
# [3] = system: S. cerevisiae Y2301 overexpressed ScCYP51 Y140F; experiment: MIC, recombinant S. cerevisiae strain Y2301 Y140F; assay type: cell-based; conditions: Saccharomyces cerevisiae, pH 6.8, read-out: MIC Y2301 Y140F
# Procedure: as §1, §2
# [4] = system: S. cerevisiae Y570 overexpressing C. albicans ABC transporter CDR1B; experiment: MIC, recombinant S. cerevisiae strain Y570 CaCDR1B; assay type: cell-based; conditions: SD medium pH 6.8, 30 °C; 80% inhibition of growth
# Procedure: as §1, §2
# [5] = system: S. cerevisiae Y2760 overexpressed H. sapiens wild-type CYP51 (HsCYP51); experiment: MIC, recombinant S. cerevisiae strain Y2760 HsCYP51; assay type: cell-based; conditions: Saccharomyces cerevisiae, pH 6.8, read-out: MIC Y2760 HsCYP51
# Procedure: as §1
# The HsCYP51 ORF (NP_000777.1) was codon harmonized (ch) using DNA 2.0 for expression in S. cerevisiae and synthesized by ATUM (Newark, Ca, USA). The 3′ end of the ORF was extended to encode EQKI of the ScErg11 C-terminus, followed by a GGR linker and a 6xHis tag. Strain Y2514 was prepared by transforming host strain Y1857 with a transformation cassette including the above construct together with the ScPGK transcription terminator and URA3 selection marker located downstream, bordered by upstream and downstream parts of ScPDR5 gene identical to sequences in ScErg11 over-expressing strain Y941. Strain Y2514 constitutively overexpressed HsCYP51ch-6xHis and URA3 from the ScPDR5 locus.
# Strain Y2757 (Y2514, PDR15::HsCPRch-6xHis-LoxP-HIS1-LoxP) was prepared by co-expressing the cognate reductase HsCRP in strain Y2514. Codon harmonisation and synthesis of human NADPH-cytochrome P450 reductase isoform 2 (HsCPRch, NP_001369584.1) ORF was performed by ATUM. The gene was 3′ extended with a sequence encoding GGR-6xHIS. A transformation cassette was prepared by recombinant PCR to include the HsCPRch ORF with 657 nucleotides the ScPDR5 promoter upstream, and the ScPGK terminator followed by the LoxP flanked ScHIS1 selection marker downstream. ScPDR15 specific arms bordering the construct enabled the cassette to be integrated between the nucleotide 441 of the 5′ UTR and nucleotide 1 of the 3′ UTR in PDR15.
# Strain Y2758 (Y2757 ΔHIS1) was made using the following steps. Strain Y2757 was transformed with the pSH69 pGAL1-cre plasmid (Euroscarf, Germany) via selection on hygromycin (75 μg mL^−1) containing YPD plates. A single hygromycin positive colony was inoculated in 1% yeast extract, 2% peptone and 2% of galactose broth and incubated for 16 hours at 30 °C with shaking. The diluted culture was then plated on YPD agar and replica-plated on YPD + hygromycin and SD-HIS dropout agar plates. Deletion of the HIS selection marker downstream of HsCPRch-6xHis in the PDR15 locus was confirmed in double His and hygromycin negative isolates by PCR and DNA sequence analysis.
# The endogenous ScERG11 ORF in strain Y2758 was removed by transforming with a LoxP- ScHIS1 containing cassette with arms complementing from +387 nucleotides in the 5′UTR and −60 nucleotides in the 3′UTR of the ScERG11 locus, resulting in strain Y2760 (ADΔΔ PDR5::HsCYP51ch-6×HIS-URA3; PDR15::HsCPRch6×HIS-LoxP, ΔERG11-LoxP-HIS1-LoxP).
# as §2
# [6] = system: S. cerevisiae Y2513 overexpressed ScCYP51 Y140H; experiment: MIC, recombinant S. cerevisiae strain Y2513 Y140H; assay type: cell-based; conditions: Saccharomyces cerevisiae, pH 6.8, read-out: MIC Y2513 Y140H
# Procedure: as §1, §2
# [7] = system: S. cerevisiae Y2300 overexpressed wild-type ScCYP51; experiment: MIC, recombinant S. cerevisiae strain Y2300 ScCYP51; assay type: cell-based; conditions: Saccharomyces cerevisiae, pH 6.8, read-out: MIC Y2300 ScCYP51
# Procedure: as §1, §2
# [8] = system: C. albicans wild-type clinical isolate CA14; experiment: C. albicans susceptibility testing (CLSI broth microdilution MIC), strain CA14; assay type: cell-based, Candida albicans; conditions: RPMI 1640, 37 °C, read at 48 h; for MIC: Candida albicans
# From the text: (§3) Each novel compound was screened against C. albicans wild-type clinical isolate CA14 and C. albicans laboratory strain SC5314 using the standardised CLSI M27-S4 broth dilution method.[28] […] This might be explained by the clog P data as the more lipophilic compounds should more readily penetrate the fungal membrane resulting in improved uptake or may relate to optimal fill of the small hydrophobic pocket leading to improved binding.
# (§4) Antifungal MIC values were obtained according to the CLSI microdilution method for yeasts.[28]C. albicans strains CA14 and SC5314 were tested in triplicate. Cultures were diluted to 2.5 × 10^3 cells per mL in RPMI 1640 (Sigma), buffered with 0.165 M MOPS, pH 7.0. Antifungal compounds were dissolved in DMSO and added at a final concentration of 1% v/v DMSO. Plates were incubated at 37 °C and read at 48 h.
# [9] = system: C. albicans laboratory strain SC5314; experiment: C. albicans susceptibility testing (CLSI broth microdilution MIC), strain SC5314; assay type: cell-based, Candida albicans; conditions: RPMI 1640, 37 °C, read at 48 h; for MIC: Candida albicans, SC5314, 48 h
# From the text: as §3, §4
# native CaCYP51 = biological target: T1, native CaCYP51 (Candida albicans, UniProt P10613); experiment: CaCYP51 type II ligand binding affinity (Kd) from difference spectra saturation curves; conditions: 2.5 μM native CaCYP51; mean ± SD of three titrations; read-out: K d
# T1 construct: made in house; host or cells: E. coli
# Procedure: Azole titration was performed in triplicate.
# The ligand–CaCYP51 complex was determined by non-linear regression (Levenberg–Marquardt algorithm) using a rearrangement of the Morrison equation for tight ligand binding,[38] while weak ligand binding was calculated by the Michaelis–Menten equation. Curve fitting for novel azole saturation curves was performed using the computer program ProFit 6.1.12 (QuantumSoft, Zurich, Switzerland) for Mac OSX. Kd values were determined for each of the three replicate titrations per azole compound and then mean Kd values and standard deviations calculated.
# [10] = biological target: T2, C. albicans CYP51 (CaCYP51) (Candida albicans, UniProt P10613); experiment: CaCYP51 reconstitution assay (IC50); assay type: biochemical; conditions: 1 μM CaCYP51, 60 μM lanosterol, 15 min at 37 °C
# T2 construct: made in house; host or cells: E. coli
# Procedure: Derivatives with a MIC <1 μg mL^−1 were chosen for IC50 testing.
# C. albicans CYP51 was overexpressed in E. coli and purified and CaCYP51 reconstitutions assays performed.[10,37] The final reaction volume of 500 μL, contained; 1 μM C. albicans CYP51, 2 μM Homo sapiens cytochrome P450 reductase (CPR) (UniProtKB accession number P16435), 60 μM lanosterol, 50 μM dilaurylphosphatidylcholine, 4% w/v 2-hydroypropyl-cyclodextrin, 0.4 mg mL^−1 isocitrate dehydrogenase, 25 mM trisodium isocitrate, 50 mM NaCl, 5 mM MgCl2, and 40 mM MOPS (morpholinepropanesulfonic acid, pH 7.2). Antifungal compounds were added in 2.5 μL DMSO. The reaction was started by the addition of 4 mM NADPH-tetrasodium salt. Samples were shaken for 15 min at 37 °C and sterol metabolites extracted with ethyl acetate and derivatised with BSTFA.
# T2 sequence (P10613 whole entry): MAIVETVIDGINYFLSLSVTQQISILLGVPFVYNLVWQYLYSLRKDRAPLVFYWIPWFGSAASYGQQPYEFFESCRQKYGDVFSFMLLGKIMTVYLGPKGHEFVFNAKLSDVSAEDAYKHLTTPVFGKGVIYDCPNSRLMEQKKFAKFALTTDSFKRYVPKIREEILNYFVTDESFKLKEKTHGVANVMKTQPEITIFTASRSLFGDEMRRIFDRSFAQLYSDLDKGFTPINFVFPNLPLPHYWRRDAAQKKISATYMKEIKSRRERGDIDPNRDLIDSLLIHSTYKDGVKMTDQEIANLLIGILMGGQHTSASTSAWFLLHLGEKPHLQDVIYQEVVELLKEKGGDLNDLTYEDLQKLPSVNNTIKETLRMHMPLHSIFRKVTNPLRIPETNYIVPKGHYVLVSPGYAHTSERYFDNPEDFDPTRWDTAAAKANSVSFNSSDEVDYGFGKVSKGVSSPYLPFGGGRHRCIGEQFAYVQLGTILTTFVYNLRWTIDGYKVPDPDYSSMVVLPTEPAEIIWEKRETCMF
# T1 sequence (P10613 whole entry): as above
Compound,MIC [8] [µg/mL],MIC [9] [µg/mL],Kd (native CaCYP51) [nM],IC50 [10] [nM],also measured
"CCCCCOc1ccc(-c2cc(-c3ccc(C(=O)N[C@H]4C[C@@H](O)[C@@H](O)NC(=O)[C@@H]5[C@@H](O)[C@@H](C)CN5C(=O)[C@H]([C@H](O)CC(N)=O)NC(=O)[C@H]([C@H](O)[C@@H](O)c5ccc(O)c(OS(=O)(=O)O)c5)NC(=O)[C@@H]5C[C@@H](O)CN5C(=O)[C@H]([C@@H](C)O)NC4=O)cc3)no2)cc1 [Micafungin, reference compound] (X1-[Orn(4R-OH,5R-OH)]T[Hyp][hTyr(3S-OH,4S-OH,3'-OSO3H)][Gln(3R-OH)][Pro(3S-OH,4S-Me)]; lactam 1-C)",–,–,–,–,MIC [1]: 0.125 µg/mL; MIC [2]: 0.125 µg/mL; MIC [3]: 0.125 µg/mL; MIC [4]: 0.125 µg/mL; MIC [5]: 0.125 µg/mL; MIC [6]: 0.125 µg/mL; MIC [7]: 0.125 µg/mL
"CC(=O)c1cccc(C(=O)NCC(O)(Cn2cncn2)c2ccc(Cl)cc2)c1 (stereo not shown) [6a, 3-Acetyl-N-(2-(4-chlorophenyl)-2-hydroxy-3-(1H-1,2,4-triazol-1-yl)propyl)benzamide]",0.25,0.25,1440 ± 266,1300,–
"CC(=O)c1cccc(C(=O)NCC(O)(Cn2cncn2)c2ccc(Cl)cc2Cl)c1 (stereo not shown) [6b, 3-Acetyl-N-(2-(2,4-dichlorophenyl)-2-hydroxy-3-(1H-1,2,4-triazol-1yl)propyl)benzamide]",< 0.03,< 0.03,229 ± 45,490,MIC CA14 [8]: <0.03 µg/mL; MIC SC5314 [9]: 0.06 µg/mL

# Second part, led by results:
MIC [8] [µg/mL],MIC [9] [µg/mL],Kd (native CaCYP51) [nM],IC50 [10] [nM],Compound,also measured
1,1,–,–,"O=C(NCC(O)(Cn1cncn1)c1ccc(Cl)cc1)c1ccc(NS(=O)(=O)c2ccc(Cl)cc2)cc1 (stereo not shown) [14a, N-(2-(4-Chlorophenyl)-2-hydroxy-3-(1H-1,2,4-triazol-1-yl)propyl)-4-((4-chlorophenyl)sulfonamido)benzamide]",–
1,2,–,–,"O=C(Nc1ccc(Cl)cc1)Nc1ccc(C(=O)NCC(O)(Cn2cncn2)c2ccc(Cl)cc2)cc1 (stereo not shown) [12a, N-(2-(4-Chlorophenyl)-2-hydroxy-3-(1H-1,2,4-triazol-1-yl)propyl)-4-(3-(4-chlorophenyl)ureido)benzamide]",–
0.25,0.5,125 ± 41,670,"O=C(NCC(O)(Cn1cncn1)c1ccc(Cl)cc1Cl)c1ccc(NC(=S)Nc2ccc(Cl)cc2)cc1 (stereo not shown) [11b, 4-(3-(4-Chlorophenyl)thioureido)-N-(2-(2,4-dichlorophenyl)-2-hydroxy-3-(1H-1,2,4-triazol-1-yl)propyl)benzamide]",–
